Reference: ChEMBL document CHEMBL1121661, “Synthesis and antitumor activity of a series of sulfone analogues of 1,4-naphthoquinone” (1981)

Experiments:
Assay type in all cases: functional
Mus musculus [1] = assay: Percent packed cell volume at 10 mg/kg per day per mouse; set-up: unit not given here
Mus musculus [2] = assay: Percent inhibition of Ehrlich ascites carcinoma growth at 10 mg/kg per day
Mus musculus [3] = assay: Effect on Ehrlich ascites carcinoma growth in CF1 mice at 10 mg/kg per day ip survival at day 9; 8/8; details: route intraperitoneal
Mus musculus [4] = assay: Effect on P-388 lymphocytic leukemia growth at a given dose 10 mg/kg per day ip expressed as average survival days of treated mice; details: route intraperitoneal
Mus musculus [5] = assay: Percent packed cell volume at 10 mg/kg per day
Mus musculus [6] = assay: Effect on P-388 lymphocytic leukemia growth at a given dose 10 mg/kg per day ip expressed as ratio of treated / control (T/C>125 is required for significant activity); details: route intraperitoneal
Mus musculus [7] = assay: Effect on Ehrlich ascites carcinoma growth in CF1 mice at 10 mg/kg per day ip survival at day 9; 6/6; details: route intraperitoneal
Mus musculus [8] = assay: Effect of compound on P-388 lymphocytic leukemia growth at a given dose 15 mg/kg per day ip expressed as ratio of treated / control (T/C>125 is required for significant activity); details: route intraperitoneal
Mus musculus [9] = assay: Effect of compound on P-388 lymphocytic leukemia growth at a given dose 15 mg/kg per day ip expressed as average survival days of treated mice; details: route intraperitoneal
Mus musculus [10] = assay: Effect of compound on P-388 lymphocytic leukemia growth at a given dose 10 mg/kg per day ip expressed as ratio of treated / control; details: route intraperitoneal
Mus musculus [11] = assay: Effect of compound on P-388 lymphocytic leukemia growth at a given dose 5 mg/kg per day ip expressed as ratio of treated / control (T/C>125 is required for significant activity); details: route intraperitoneal
Mus musculus [12] = assay: Effect of compound on P-388 lymphocytic leukemia growth at a given dose 5 mg/kg per day ip expressed as average survival days of treated mice; details: route intraperitoneal
Mus musculus [13] = assay: Effect of compound on P-388 lymphocytic leukemia growth at a given dose 10 mg/kg per day ip expressed as ratio of treated / control (T/C>125 is required for significant activity); details: route intraperitoneal
Mus musculus [14] = assay: Effect of compound on Ehrlich ascites carcinoma growth in CF1 mice at a dose ((20 mg/kg)/day) ip survival at day 9 packed cell volume as a percent
Mus musculus [15] = assay: Effect of compound on Ehrlich ascites carcinoma growth in CF1 mice at a dose ((20 mg/kg)/day) ip survival at day 9 packed cell volume
Mus musculus [16] = assay: Effect of compound on Ehrlich ascites carcinoma growth in CF1 mice at 20 mg/kg per day ip survival at day 9; 8/8; details: route intraperitoneal
Mus musculus [17] = assay: Effect of compound on P-388 lymphocytic leukemia growth at a given dose 25 mg/kg per day ip expressed as ratio of treated / control (T/C>125 is required for significant activity); details: route intraperitoneal
Mus musculus [18] = assay: Effect of compound on P-388 lymphocytic leukemia growth at a given dose 25 mg/kg per day ip expressed as average survival days of treated mice; details: route intraperitoneal

Row | Structure (SMILES) | Volume (Mus musculus [1]) | inhibition in vivo at 10 mg/kg/day (Mus musculus [2]) | Survivors at day 9 (Mus musculus [3]) | Days (Mus musculus [4]) | % (Mus musculus [5]) | Survivors at day 9 (Mus musculus [7]) | also measured
1 | O=C1C(CCl)=C(CCl)C(=O)c2ccccc21 | 0.31 | 98.8% | 8 | 12.2 | 5 | – | T/C (Mus musculus [6]): 128
2 | O=C1C(CN(CCCl)CCCl)=CS(=O)(=O)c2ccccc21 | 0.01 | 99.9% | – | – | 2 | 6 | –
3 | CCC(=O)OCC1=CS(=O)(=O)c2ccccc2C1=O | 0.23 | 99.5% | – | – | 0.07 | 6 | –
4 | O=C(OCC1=CS(=O)(=O)c2ccccc2C1=O)c1ccccc1 | 2.7 | 0% | 8 | – | 33.7 | – | –
5 | O=C1C(COC(=O)N(C(=O)Nc2ccccc2)c2ccccc2)=CS(=O)(=O)c2ccccc21 | 0.58 | 69.3% | – | – | 38 | 6 | –
6 | O=C1c2ccccc2S(=O)(=O)CC1CCl (configuration not stated) | 1.84 | 36.3% | 8 | – | 43.5 | – | T/C (Mus musculus [8]): 105; Days (Mus musculus [9]): 10
7 | O=C1C(CNc2ccccc2)=CS(=O)(=O)c2ccccc21 | 2.8 | 0% | 8 | – | 40.2 | – | –
8 | O=C1C(Br)=C(c2ccccc2)S(=O)(=O)c2ccccc21 | 4.06 | 0.4% | 8 | 11.4 | 30.6 | – | T/C (Mus musculus [10]): 120
9 | COCCOCC1=CS(=O)(=O)c2ccccc2C1=O | 0.07 | 98.2% | – | – | 8.2 | 6 | –
10 | CC(C)OCC1=CS(=O)(=O)c2ccccc2C1=O | 0.28 | 99.2% | – | 11.6 | 3.19 | 6 | T/C (Mus musculus [6]): 122
11 | O=C1C(CBr)=CS(=O)(=O)c2ccccc21 | 0.35 | 92.8% | 8 | 10 | 8.63 | – | T/C (Mus musculus [6]): 105
12 | O=C1C(CI)=CS(=O)(=O)c2ccccc21 | 0.15 | 98% | – | – | 9.57 | 6 | –
13 | CCCOCC1=CS(=O)(=O)c2ccccc2C1=O | 0.12 | 99.9% | – | – | 0.19 | 6 | –
14 | CCNC(=O)OCC1=CS(=O)(=O)c2ccccc2C1=O | 0.38 | 99.3% | – | – | 1.33 | 6 | –
15 | O=c1cc[s+]([O-])c2ccccc12 (configuration not stated) | 0.27 | 89.6% | – | – | 27.8 | 6 | –
16 | O=COCC1=CS(=O)(=O)c2ccccc2C1=O | 0.57 | 91.6% | – | – | 4.23 | 6 | –
17 | COCC1=CS(=O)(=O)c2ccccc2C1=O | 0.1 | 99.9% | 8 | 12 | 0.1 | – | T/C (Mus musculus [6]): 126
18 | CCOCC1=CS(=O)(=O)c2ccccc2C1=O | 0.54 | 92.4% | 8 | 12.2 | 17.8 | – | T/C (Mus musculus [8]): 101; Days (Mus musculus [9]): 9.6; T/C (Mus musculus [11]): 109; Days (Mus musculus [12]): 10.4; T/C (Mus musculus [13]): 128
19 | O=C1C(COCCCl)=CS(=O)(=O)c2ccccc21 | 0.07 | 98.1% | – | – | 7.93 | 6 | –
20 | O=C1C(CN2CCOCC2)=CS(=O)(=O)c2ccccc21 | 1.25 | 0% | 8 | – | 43.3 | – | –
21 | O=C1C(COCCBr)=CS(=O)(=O)c2ccccc21 | 0.05 | 100% | 8 | – | 0 | – | –
22 | CC1=C(Br)C(=O)c2ccccc2S1(=O)=O | 2.82 | 22.8% | 8 | – | 34.3 | – | T/C (Mus musculus [8]): 107; Days (Mus musculus [9]): 10.2
23 | O=C1C=CS(=O)(=O)c2ccccc21 | 2.78 | 5.5% | 8 | 11.4 | 42.6 | – | T/C (Mus musculus [6]): 120
24 | O=C1C(CBr)=C(CBr)S(=O)(=O)c2ccccc21 | 0.76 | 53.9% | 8 | 10.3 | 37.2 | – | % (Mus musculus [14]): 25.2; Inhibition (Mus musculus [14]): 69.9%; Volume (Mus musculus [15]): 0.99; Survivors at day 9 (Mus musculus [16]): 8; T/C (Mus musculus [6]): 108
25 | Cc1sc2ccccc2c(=O)c1CBr | 2.1 | 25.8% | 8 | 11.4 | 42.7 | – | T/C (Mus musculus [6]): 120
26 | O=c1[nH]cc(F)c(=O)[nH]1 [FLUOROURACIL] | – | – | – | – | – | – | T/C (Mus musculus [17]): 186; Days (Mus musculus [18]): 17.6
